Results published in patent US20190336489A1, “NON PEPTIDE HETEROBIVALENT MOLECULES FOR TREATING INFLAMMATORY DISEASES” (GLAXOSMITHKLINE INTELLECTUAL PROPERTY DEVELOPMENT LIMITED, priority 2017, published 2019).
Marks after values point to notes of the source that are not given here.

Experiments:
Assay type in all cases: cell-based
CCR1 = molecular target: T1, CCR1 (Homo sapiens, UniProt P32246); assay: Antibody Dependent Cellular Cytotoxicity (ADCC) reporter assay, CCR1 target cells; details: CHOK1 cells overexpressing CCR1
T1 construct: expressed in transfected cells; host or cells: CHOK1
T1 sequence (P32246 1-355): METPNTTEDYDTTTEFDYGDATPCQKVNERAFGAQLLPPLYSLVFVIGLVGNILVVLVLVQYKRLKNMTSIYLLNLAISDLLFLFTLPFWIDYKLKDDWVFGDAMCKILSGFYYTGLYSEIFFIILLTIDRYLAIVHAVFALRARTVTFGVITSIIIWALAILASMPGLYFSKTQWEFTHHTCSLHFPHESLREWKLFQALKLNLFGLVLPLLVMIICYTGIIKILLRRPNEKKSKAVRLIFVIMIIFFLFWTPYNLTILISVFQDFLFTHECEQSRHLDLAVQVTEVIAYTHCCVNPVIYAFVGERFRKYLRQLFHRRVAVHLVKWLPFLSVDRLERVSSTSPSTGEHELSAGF
Excerpt: (§1) The compounds described herein have been characterized in an ADCC reporter assay (see Section 1.2 ADCC reporter for protocol). […] Furthermore, the assay also confirms that this formed complex can engage and activate the Fc receptors on immune cells. Lastly, the assay provides both potency (EC50) and efficacy (signal to background ratio) for each compound in a dose dependant manner.
(§2) This assay has four components • 1) Heterobivalent Compound consisting of a targeting ligand and a hapten connected by a linker (ranging from 10 uM-1 pM) • 2) A hapten antibody with functional Fc domain (typical concentrations are 0.01 ug/mL-200 ug/mL) • 3) Target cells—CHOK1 cells engineered to overexpress either CCR1, CCR2, or CCR3, or CEMNKR cells engineered to overexpress CCR5 (typically 1000-20,000 cells per well) • 4) Reporter cells—Jurkat cells engineered to express FcgRIIIa (ADCC reporter assay) and with a reporter gene (luciferase) under the control of the NFAT promoter (typically 3000-75,000 cells per well)
(§3) Reagents are combined in final volume of 20 uL in 384-well tissue culture treated plated.
(§4) All components are incubated together for ˜12-18 hours. Add BioGlo Detection reagent (from Promega) to lyse the cells and provide substrate for the luciferase reporter protein. Signal is measured on a microplate reader capable of measuring luminescence. Signal:Background is calculated by dividing the signal of a test well by the signal obtained when no compound is included in the assay. EC50 calculations were done using Graphpad Prism Software, specifically a nonlinear regression curve fit (Y=Bottom+(Top−Bottom)/(1+10^((Log EC50−X)*HillSlope)))

CCR5 = molecular target: T2, CCR5 (Homo sapiens, UniProt P51681); assay: Antibody Dependent Cellular Cytotoxicity (ADCC) reporter assay, CCR5 target cells; details: CEMNKR cells overexpressing CCR5
T2 construct: expressed in transfected cells; host or cells: CEMNKR
T2 sequence (P51681 whole entry): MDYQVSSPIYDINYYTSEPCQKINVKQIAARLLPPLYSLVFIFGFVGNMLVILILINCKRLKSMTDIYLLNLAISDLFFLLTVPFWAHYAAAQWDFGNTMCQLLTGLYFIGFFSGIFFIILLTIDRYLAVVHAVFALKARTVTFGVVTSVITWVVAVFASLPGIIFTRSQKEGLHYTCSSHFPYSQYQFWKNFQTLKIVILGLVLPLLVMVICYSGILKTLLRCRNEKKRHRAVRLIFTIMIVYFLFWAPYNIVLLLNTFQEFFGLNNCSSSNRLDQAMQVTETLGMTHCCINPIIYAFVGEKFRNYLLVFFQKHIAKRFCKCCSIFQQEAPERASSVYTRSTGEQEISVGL
Excerpt: as §1, §2, §3
All components are incubated together for ˜12-18 hours. […] Signal is measured on a microplate reader capable of measuring luminescence. Signal:Background is calculated by dividing the signal of a test well by the signal obtained when no compound is included in the assay. […]

CCR3 = molecular target: T3, CCR3 (Homo sapiens, UniProt P51677); assay: Antibody Dependent Cellular Cytotoxicity (ADCC) reporter assay, CCR3 target cells; details: CHOK1 cells overexpressing CCR3
T3 construct: expressed in transfected cells; host or cells: CHOK1
T3 sequence (P51677 1-355): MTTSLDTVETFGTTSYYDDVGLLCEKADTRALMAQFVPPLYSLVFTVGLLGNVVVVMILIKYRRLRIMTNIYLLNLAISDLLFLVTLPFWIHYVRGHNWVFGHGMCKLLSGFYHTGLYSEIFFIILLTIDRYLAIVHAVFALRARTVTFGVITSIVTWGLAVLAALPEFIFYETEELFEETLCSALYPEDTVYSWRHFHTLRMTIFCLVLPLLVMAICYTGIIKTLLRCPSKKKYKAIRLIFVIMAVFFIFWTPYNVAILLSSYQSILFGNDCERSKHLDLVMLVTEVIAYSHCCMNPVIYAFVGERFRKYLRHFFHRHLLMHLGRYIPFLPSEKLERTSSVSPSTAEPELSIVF
Excerpt: as §1, §2, §3, §4

[1] = Jurkat FcgRIIIa NFAT-luciferase reporter cells, EC50 class, read-out: ADCC potency
[2] = maximum signal:background (S/B)

Compound	EC50 (CCR1; [1]) [nM]	ADCC efficacy (CCR1; [2])	EC50 (CCR5; [1]) [nM]	ADCC efficacy (CCR5; [2])	EC50 (CCR3; [1]) [nM]	ADCC efficacy (CCR3; [2])
CC(C)[C@@H](NC(=O)c1cccc(C(=O)NCCOCCOCCOCCOCCOCCOCCOCCOCCC(=O)NCCOCCOCCOCCOCCOCCOCCOCCOCCOCCOCCOCCNC(=O)CCCC[C@@H]2SC[C@@H]3NC(=O)N[C@@H]32)c1)C(=O)N1CCC(c2ccc(Cl)cc2)CC1 [Compound 5, N1-((R)-1-(4-(4-chlorophenyl)piperidin-1-yl)-3-methyl-1-oxobutan-2-yl)-N3-(27,65-dioxo-69-((3aS,4S,6aR)-2-oxohexahydro-1H-thieno[3,4-d]imidazol-4-yl)-3,6,9,12,15,18,21,24,31,34, 37,40,43,46,49,52,55,58,61-nonadecaoxa-28,64-diazanonahexacontyl)isophthalamide]	100 to 1000	+^d (between 6-8 = +)				
O=C(NCc1ccc(C(=O)NCCOCCOCCOCCOCCOCCOCCOCCOCCOCCNc2ccc([N+](=O)[O-])cc2[N+](=O)[O-])cc1)NC[C@H]1CN(Cc2ccc(Cl)c(Cl)c2)CCO1 [Compound 20, (S)-4-((3-((4-(3,4-dichlorobenzyl)morpholin-2-yl)methyl)ureido)methyl)-N-(29-((2,4-dinitrophenyl)amino)-3,6,9,12,15,18,21,24,27-nonaoxanonacosyl)benzamide]			< 1	+++^g (Maximum Signal:Background > 70 = +++)	< 1	+++^f (Maximum S:B > 20 = +++)
